Legend:
[1] = test system: Chloroform-Induced Arrythmia; experiment: Activity against chloroform-induced arrythmia in rats (prevention of ventricular fibrillation); format: in vivo, Sprague-Dowley male rats; details: for Percent prevention (ventricular fibrillation), starved: starved rats
Protocol: Activity Aganist Chloroform-Induced Arrythmia in Rats
The following procedures were substantially in accordance with the method of Erker and Baker (Arch. Int. Pharmacodyn., 243, 97-102, 1980). Aminophylline (20 mg/kg) was injected intramuscularly into two groups of Sprague-Dowley male rats (3-4 wk. old, 7 animals per group) weighing about 100 g on average, one group having been starved for 24 hours and the other group not starved. Thirty minutes after the injection, the animals were put into a 4,000-ml glass beaker with a lid that contained gauze impregnated with […] of chloroform. Fifty minutes later, the animals were recovered from the beaker and their chests were incised to check their hearts for the presence of ventricular fibrillation. The features of their cardiac rhythm were examined by the electrocardiogram. When no distinct fibrillation was observed, the heart was touched with tweezers. The heart was identified as fibrillar when rapid irregular twitchings occured on the surface of ventricles and continued for at least 5 seconds after chest incision or mechanical stimulation.
Selected compounds suspended in 3% gum arabic were administered in various doses to the rats either intraperitoneally (i.P.) or perorally (P.O.) 30 minutes prior to treatment with chloroform. The percent prevention of ventricular fibrillation was determined for each rat. Only a 3% gum arabic solution was administered to the control group.

[2] = test system: Ouabain-Induced Arrythmia; experiment: Activity against ouabain-induced arrythmia in guinea pigs; format: in vivo, Hartly male guinea pigs; details: ouabain 5 μg/kg/min; for Time required for ventricular extrasystole to occur: untreated 28.5 min; for Time required for ventricular fibrillation to occur: untreated 35.1 min; for Time required for cardiac arrest to occur: untreated 41.2 min
Protocol: Activity Against Ouabain-Induced Arrythmia in Guinea Pigs
Hartly male guinea pigs (5-6 wk. old, two animals per group) weighing about 350 g on average were anesthetized by intraperitoneal administration of 1.2 g/kg of urethane. A polyethylene cannula was inserted into both the cervical vein and the carotid artery; the drug was administered through the cervical vein while the blood pressure was measured at the carotid artery. A selected test compound was administered 5 minutes before the sustained intravenous infusion of the ouabain solution (5 μg/kg/min) as described in J. Pharmacol. Exp. Ther., 136, 227, 1962). Identification of arrythmia was made by the ECG in the second induction period; the appearance of a QRS complex with sharply downward deflictions was used as an indication of ventricular arrythmia and observation was continued until ventricular fibrillation and cardiac arrest appeared. The results are shown in Table 4 in terms of the times required for ventricular extrasystole, ventricular fibrillation and cardiac arrest to occur.

Acetylcholine [3] = experiment: Activity against acetylcholine (I): inhibition of acetylcholine-induced contraction of isolated ilea; design: species or system SD/Slc male rats; details: 10^-4 M; 10^-6 M acetylcholine; isolated rat ilea
Protocol: Activity Against Acetylcholine (I)
SD/Slc male rats (10-mo. old, four animals per group) were clubbed dead and their ilea were immediately extracted. The ilea were suspended under a load of 1 g in a Krebs-Henseleit solution oxygenated with a mixture of 95% O2 +5% CO2 at 27° C., and the ileal reaction was measured isotonically.
The anti-cholinergic activity of each of the compounds tested was determined in terms of percent inhibition against the contractive reaction of 10^-6 M of acetylcholine (causing 60-70% of the maximum contractive reaction of acetylcholine).

Blood Sugar Level = experiment: Effect on blood sugar level; format: in vivo, SD/Slc male rats; details: starved overnight
Protocol: Effect on Blood Sugar Level
After starving SD/Slc male rats (body weight, 250 g; 6 animals per group) overnight, 20-μl blood samples were drawn from the tail vein of each rat while it was not anesthetized. Records were taken of the sugar level in each blood sample. A selected compound of the present invention was suspended in 3% gum arabic and the suspension was administered perorally to each rat in an amount of 50 or 200 mg/kg. At 2, 4 and 6 hours of the administration, blood samples were taken and their blood sugar levels were measured. Measurements of blood sugar levels were conducted with a New Blood Sugar Test (Boehringer, Mannheim).
To the control group, a 3% gum arabic solution was administered, and diisopyramide was administered as a comparative drug.

[4] = test system: Aconitine-Induced Arrythmia; experiment: Activity against aconitine-induced arrythmia in rats; format: in vivo, Sprague-Dowley male rats; details: aconitine 1 μg/kg/min; for Time required for ventricular extrasystole to occur: untreated 14.3 min; for Time required for ventricular fibrillation to occur: untreated 35.3 min
Protocol: Activity Against Aconitine-Induced Arrythmia in Rats
Using Sprague-Dowley male rats (9-10 wk. old, two animals per group) weighing about 350 g on average, the following experiment was conducted substantially in compliance with the method of Vargftig et al. (Europ. J. Pharmacol., 6, 49, 1969).
The animals were anesthetized by intraperitoneal administration of 1 g/kg of urethane. A polyethylene cannula was inserted into both the femoral artery and vein of each animal; the drug was administered through the femoral vein while the blood pressure was measured at the femoral artery.
While the aconitine solution was continuously infused into the vein at a rate of 1 μg/kg/min, a selected compound was administered intravenously at 5-minute intervals. In order to prevent the aconitine-induced dyspnea from interfering with the experimental results, 0.2 mg/kg of d-tubocurarine was administered intravenously to each animal, which then was subjected to artificial respiration through a cannula inserted into the trachea (80 breathings/min, with 4 ml of air supplied by a single ventillation).
Identification of arrythmia was made by the ECG in the second induction period; the appearance of a QRS complex with sharply downward deflections was used as an indication of ventricular arrythmia and observation was continued until ventricular fibrillation appeared. The results are shown in Table 3 in terms of the times required for ventricular extrasystole and ventricular fibrillation to occur.

Acetylcholine [5] = experiment: Activity against acetylcholine (II): inhibition of acetylcholine-induced saliva excretion; format: in vivo, Beagle dogs; details: dose 100 (g), intra-arterially, 1 min before acetylcholine
Protocol: Activity Against Acetylcholine (II)
Beagle dogs were anesthetized by intravenous administration of pentobarbital (35 mg/kg). The following experiment was conducted in accordance with the method of Sato et al. (Tohoku J. Exp. Med., 108, 377-388, 1982). The left lower jaw of each animal was incised to identify the submandibular gland, the duct through which saliva was excreted from that gland, and the artery nourishing the same gland. A polyethylene tube was first inserted into the excretory duct. Then, a cannula was inserted into the submandibular gland controlling artery and said gland was perfused with the arterial blood drawn from the femoral artery. The tube from the duct was connected to a drop counter and the number of drops of excreted saliva was recorded. The excretion of saliva was induced by intra-arterial administration of acetylcholine.
One minute before the acetylcholine administration, […] (0.1 ml) of a selected compound was administered intra-arterially and its ability to inhibit saliva excretion was examined.

[6] = test system: sleeping induced by hexobarbital; experiment: Effect on the time of sleeping induced by hexobarbital; format: in vivo, ddY/Slc male rats; details: H3PO4 salt, untreated 53.9 ± 2.7
Protocol: Effect on the Time of Sleeping Induced by Hexobarbital
A selected compound of the present invention was administered perorally to ddY/Slc male rats (5-6 wk. old, 10 animals per group) in an amount of 50 or 100 mg/kg. One hour later, […] of hexobarbital was administered intraperitoneally to each animal, thereby causing the loss of orthogonal reflex. The time required for the recovery of orthogonal reflex was measured for each animal.
As comparative drugs, 50 or 100 mg/kg of disopyramide and 5 mg/kg of diazepam were administered perorally.

[7] = cited from earlier work

Cc1cccc(C)c1NC(=O)CCNCCN(C(C)C)C(C)C [Compound No. 1, 3-(diisopropylaminoethylamino)-2',6'-dimethylpropionanilide]
responders at 25 mg/kg ([1]; Rattus norvegicus, ip, 0.5 h, not starved rats, 25 mg/kg i.P., 30 min prior to chloroform, read-out: Percent prevention (ventricular fibrillation), not starved): 85.7% | responders at 1 mg/kg ([1]; Rattus norvegicus, po, 0.5 h, not starved rats, 1 mg/kg P.O., 30 min prior to chloroform, read-out: Percent prevention (ventricular fibrillation), not starved): 85.7% | Percent prevention (ventricular fibrillation), starved ([1]; 1 mg/kg P.O., 30 min prior to chloroform): 85.7% | Time required for ventricular extrasystole to occur ([2]; 5 mg/kg via cervical vein): 42.1 min | Time required for ventricular fibrillation to occur ([2]; 5 mg/kg via cervical vein): 45.4 min | Time required for cardiac arrest to occur ([2]; 5 mg/kg via cervical vein): 51.3 min | Percent inhibition (contractive reaction of acetylcholine) (Acetylcholine [3]): 20% | Blood sugar level, 0 hr (mean ± S.E.) (Blood Sugar Level; 50 mg/kg perorally): 68.4 ± 4.0 mg/dL | Blood sugar level, 2 hr (mean ± S.E.) (Blood Sugar Level; 50 mg/kg perorally): 63.0 ± 4.1 mg/dL | Blood sugar level, 4 hr (mean ± S.E.) (Blood Sugar Level; 50 mg/kg perorally): 58.1 ± 2.2 mg/dL | Blood sugar level, 6 hr (mean ± S.E.) (Blood Sugar Level; 50 mg/kg perorally): 59.9 ± 2.6 mg/dL | Blood sugar level, 0 hr (mean ± S.E.) (Blood Sugar Level; 200 mg/kg perorally): 83.7 ± 3.0 mg/dL | Blood sugar level, 2 hr (mean ± S.E.) (Blood Sugar Level; 200 mg/kg perorally): 55.4 ± 5.7 mg/dL | Blood sugar level, 4 hr (mean ± S.E.) (Blood Sugar Level; 200 mg/kg perorally): 73.4 ± 7.2 mg/dL | Blood sugar level, 6 hr (mean ± S.E.) (Blood Sugar Level; 200 mg/kg perorally): 71.2 ± 3.2 mg/dL | Time required for ventricular extrasystole to occur ([4]; 5 mg/kg intravenously): 45.2 min | Time required for ventricular fibrillation to occur ([4]; 5 mg/kg intravenously): > 120.0 min | Percent inhibition (saliva excretion) (Acetylcholine [5]): 0%

CC(C)N(CCC(C(N)=O)(c1ccccc1)c1ccccn1)C(C)C (centres unmarked) [Disopyramide, reference compound]
responders at 10 mg/kg ([1]; Rattus norvegicus, po, 0.5 h, read-out: Percent prevention (ventricular fibrillation), not starved): 37.6% | Percent prevention (ventricular fibrillation), starved ([1]; 10 mg/kg P.O., 30 min prior to chloroform): 49.6% | Time required for ventricular extrasystole to occur ([2]; 10 mg/kg via cervical vein): 41.1 min | Time required for ventricular fibrillation to occur ([2]; 10 mg/kg via cervical vein): 54.3 min | Time required for cardiac arrest to occur ([2]; 10 mg/kg via cervical vein): 59.6 min | Percent inhibition (contractive reaction of acetylcholine) (Acetylcholine [3]): 89% | Time of sleeping (mean ± S.E.) ([6]; 50 mg/kg perorally): 59.8 ± 3.3 min | Time of sleeping (mean ± S.E.) ([6]; 100 mg/kg perorally): 53.5 ± 2.4 min | Blood sugar level, 0 hr (mean ± S.E.) (Blood Sugar Level; 50 mg/kg perorally): 75.2 ± 5.9 mg/dL | Blood sugar level, 2 hr (mean ± S.E.) (Blood Sugar Level; 50 mg/kg perorally): 46.9 ± 1.7 mg/dL | Blood sugar level, 4 hr (mean ± S.E.) (Blood Sugar Level; 50 mg/kg perorally): 41.9 ± 2.9 mg/dL | Blood sugar level, 6 hr (mean ± S.E.) (Blood Sugar Level; 50 mg/kg perorally): 45.8 ± 2.0 mg/dL | Blood sugar level, 0 hr (mean ± S.E.) (Blood Sugar Level; 200 mg/kg perorally): 64.5 ± 5.6 mg/dL | Blood sugar level, 2 hr (mean ± S.E.) (Blood Sugar Level; 200 mg/kg perorally): 41.7 ± 3.1 mg/dL | Blood sugar level, 4 hr (mean ± S.E.) (Blood Sugar Level; 200 mg/kg perorally): 29.7 ± 3.2 mg/dL | Blood sugar level, 6 hr (mean ± S.E.) (Blood Sugar Level; 200 mg/kg perorally): 36.9 ± 2.6 mg/dL | action on the cardiac muscles ([7]; clinical): inhibitory action on the cardiac muscles | undesirable side effects ([7]; clinical, presumably from anti-cholinergic action): hydrodipsia, anuresis, constipation, vertigo, blurring of vision and vomiting | incidence of anuresis ([7]; patients with prostatomegaly and neurotic bladders due to diabetes): High incidence of anuresis | activity in peroral administration ([7]; peroral, clinical): sustained activity | Time required for ventricular extrasystole to occur ([4]; 10 mg/kg intravenously): 22.6 min | Time required for ventricular fibrillation to occur ([4]; 10 mg/kg intravenously): 78.2 min | Percent inhibition (saliva excretion) (Acetylcholine [5]): 41.7%

— patent US4855497A, “Novel diamine derivatives” (Chugai Seiyaku Kabushiki Kaisha, priority 1985, dated 1989)
